Test results as given in the supplement of paper PMC10307832.

Tests used:
Test in all cases: relative viability (nuclei count vs DMSO), 5 days (fraction); higher = more cells survive
Sunitinib + Lapatinib = compound: CCN(CC)CCNC(=O)c1c(C)[nH]c(/C=C2\C(=O)Nc3ccc(F)cc32)c1C [Sunitinib] + CS(=O)(=O)CCNCc1ccc(-c2ccc3ncnc(Nc4ccc(OCc5cccc(F)c5)c(Cl)c4)c3c2)o1 [Lapatinib] (partner 2 µM)
Method in brief: (§1)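 A single step with final 0.05% Triton X-100, 1% formaldehyde and 1 ug/ml Hoechst fixed the cells and stained nuclei 5 days after treatment. Lung cancer cell lines in 1536-well plates had been treated by pin tool the day after seeding with one drug alone or a fixed anchor-drug dose plus five library-drug doses (not always all listed) in √10 steps, and nuclei were counted on 4× images. Relative viability is the ratio of nuclei in treated wells to nuclei in vehicle wells, taken as the median of duplicate plates.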

Sunitinib + AZD7762 = compound: CCN(CC)CCNC(=O)c1c(C)[nH]c(/C=C2\C(=O)Nc3ccc(F)cc32)c1C [Sunitinib] + NC(=O)Nc1cc(-c2cccc(F)c2)sc1C(=O)N[C@H]1CCCNC1 [AZD7762] (partner 0.2 µM)
Method in brief: as §1

Sunitinib + Decitabine = compound: CCN(CC)CCNC(=O)c1c(C)[nH]c(/C=C2\C(=O)Nc3ccc(F)cc32)c1C [Sunitinib] + Nc1ncn([C@H]2C[C@H](O)[C@@H](CO)O2)c(=O)n1 [Decitabine] (partner 2 µM)
Method in brief: as §1

Sunitinib + Olaparib = compound: CCN(CC)CCNC(=O)c1c(C)[nH]c(/C=C2\C(=O)Nc3ccc(F)cc32)c1C [Sunitinib] + O=C(c1cc(Cc2n[nH]c(=O)c3ccccc23)ccc1F)N1CCN(C(=O)C2CC2)CC1 [Olaparib] (partner 8 µM)
Method in brief: as §1

| Cell Line | relative viability (Sunitinib + Lapatinib; first compound 0.02 µM) | relative viability (Sunitinib + Lapatinib; first compound 0.06325 µM) | relative viability (Sunitinib + Lapatinib; first compound 0.2 µM) | relative viability (Sunitinib + Lapatinib; first compound 0.6325 µM) | relative viability (Sunitinib + Lapatinib; first compound 2 µM) | relative viability (Sunitinib + AZD7762; first compound 0.02 µM) | relative viability (Sunitinib + AZD7762; first compound 0.06325 µM) | relative viability (Sunitinib + AZD7762; first compound 0.2 µM) | relative viability (Sunitinib + AZD7762; first compound 0.6325 µM) | relative viability (Sunitinib + AZD7762; first compound 2 µM) | relative viability (Sunitinib + Decitabine; first compound 0.02 µM) | relative viability (Sunitinib + Decitabine; first compound 0.06325 µM) | relative viability (Sunitinib + Decitabine; first compound 0.2 µM) | relative viability (Sunitinib + Decitabine; first compound 0.6325 µM) | relative viability (Sunitinib + Decitabine; first compound 2 µM) | relative viability (Sunitinib + Olaparib; first compound 0.02 µM) | relative viability (Sunitinib + Olaparib; first compound 0.06325 µM) | relative viability (Sunitinib + Olaparib; first compound 0.2 µM) | relative viability (Sunitinib + Olaparib; first compound 0.6325 µM) | relative viability (Sunitinib + Olaparib; first compound 2 µM) |
| --- | --- | --- | --- | --- | --- | --- | --- | --- | --- | --- | --- | --- | --- | --- | --- | --- | --- | --- | --- | --- |
| LC-2-ad | 0.916 | 1.11 | 1.07 | 0.904 | 0.581 | 0.796 | 0.889 | 0.983 | 0.844 | 0.873 | 0.788 | 0.777 | 0.82 | 0.728 | 0.714 | 0.68 | 0.746 | 0.749 | 0.729 | 0.825 |
| LCLC-97TM1 | 1.06 | 0.81 |  | 0.924 |  | 0.265 | 0.163 | 0.234 | 0.224 | 0.288 | 0.232 | 0.225 | 0.238 | 0.212 | 0.223 | 0.377 | 0.401 | 0.548 | 0.477 | 0.442 |
| LK-2 | 0.773 |  | 1.15 | 0.939 | 0.866 | 0.35 | 0.571 | 0.352 | 0.414 | 0.443 | 0.238 | 0.409 | 0.299 | 0.316 | 0.279 | 0.668 | 0.82 | 0.926 | 0.617 | 0.6 |
| LOU-NH91 | 0.732 | 0.839 | 0.828 | 0.816 | 0.764 |  | 0.688 | 0.879 | 0.831 | 0.756 | 0.787 | 0.824 | 0.826 | 0.805 | 0.835 | 0.899 | 0.903 | 1.01 | 1.05 | 0.875 |
| LU99A | 0.869 | 1.12 | 0.925 | 1.14 | 1.01 | 0.334 | 0.311 | 0.343 | 0.325 | 0.368 | 0.792 | 0.836 | 1.02 | 0.995 | 0.734 | 0.267 | 0.27 | 0.271 | 0.321 | 0.295 |
| LXF-289 | 0.903 |  | 0.948 | 0.984 |  | 1.08 | 1.16 | 1.14 | 1.19 | 1.08 | 0.379 | 0.394 | 0.436 | 0.382 | 0.408 | 1.03 | 1.06 | 1.2 | 1.11 | 1.12 |
| NCI-H23 | 1.1 | 1.42 | 1.44 | 1.36 | 1.08 | 0.287 | 0.281 | 0.36 | 0.226 | 0.241 | 0.293 | 0.351 | 0.328 | 0.307 | 0.329 | 0.353 | 0.28 | 0.307 | 0.312 | 0.307 |
| NCI-H322M | 0.594 | 0.649 | 0.583 | 0.655 | 0.633 | 0.611 | 0.559 | 0.524 | 0.651 | 0.64 | 0.664 | 0.72 | 0.654 | 0.798 | 0.696 | 0.83 | 0.771 | 0.798 | 0.802 | 0.745 |
| NCI-H358 | 0.421 | 0.6 | 0.457 | 0.514 | 0.377 | 0.59 | 0.596 | 0.637 | 0.427 | 0.449 | 0.236 | 0.217 | 0.22 | 0.197 | 0.192 | 0.452 | 0.617 | 0.756 | 0.666 | 0.471 |
| NCI-H460 | 0.85 |  | 1.3 | 1.08 | 0.927 | 0.653 | 0.592 | 0.615 | 0.659 | 0.568 | 0.457 | 0.54 | 0.566 | 0.527 | 0.563 | 0.41 | 0.484 | 0.614 | 0.473 | 0.578 |
| NCI-H596 | 0.987 | 1.14 | 1.22 | 1.19 | 1.08 |  | 1.12 | 1.18 |  | 0.858 | 0.895 | 0.902 | 1.16 | 1.01 | 0.962 | 0.688 | 0.678 | 0.679 | 0.686 | 0.651 |
| NCI-H647 | 0.939 | 1.26 | 1.19 | 1.13 | 0.913 | 0.482 | 0.48 | 0.546 | 0.642 | 0.469 | 0.329 | 0.47 | 0.512 | 0.537 | 0.41 | 0.536 | 0.517 | 0.655 | 0.639 | 0.396 |
| NCI-H650 | 1.09 | 1.33 | 0.807 | 0.925 | 0.964 | 0.882 | 1.15 | 0.945 | 1.1 | 0.944 | 0.341 | 0.291 | 0.321 | 0.325 | 0.321 | 0.399 | 0.405 | 0.39 | 0.445 | 0.384 |
| NCI-H727 | 0.88 | 0.887 | 1.36 | 0.937 | 0.781 | 0.652 | 0.575 | 0.554 | 0.612 | 0.618 | 0.837 | 0.836 | 0.857 | 0.754 | 0.889 | 0.747 | 0.649 | 0.717 | 0.593 | 0.778 |
| NCI-H838 | 0.885 | 1.38 | 1.22 | 1.09 | 0.894 | 0.956 | 0.907 | 1.01 | 0.993 | 0.884 | 0.447 | 0.489 | 0.476 | 0.485 | 0.448 | 0.757 | 0.766 | 0.812 | 0.731 | 0.58 |
